Patent EP2029580B1, “NOVEL INDOL-PYRROL DERIVATIVES FOR THE TREATMENT OF PROLIFERATIVE AND INFLAMMATORY DISEASES” (ScheBo Biotech AG, priority 2006, dated 2007)
Where two headings read alike, the source gives them in different places.

Legend:
[1] = test system: Ovarialkarzinom (OVXF 550); test: Colony assay in soft agar, ovarian carcinoma OVXF 550; type: cell-based, menschlichen
Excerpt: (§1) Im Kolonie-Assay werden Tumorstammzellen von verschiedenen menschlichen Tumorentitäten in Softagar kultiviert und die Ausbildung von Tumorkolonien in An- und Abwesenheiten von der erfindungsgemäßen Substanz (Beispiel 2.1, ggf. als Malat der Beispiel 2.2 oder 2.3) ausgezählt. Insgesamt wurde die Substanz an 25 verschiedenen Tumormodellen getestet. Zu den Tumormodellen gehörten Colon-, Pankreas- und Magenkarzinome, kleinzellige und nicht kleinzellige Lungentumore, Brust-, Ovar- und Nierenkarzinome sowie Melanome. Das breite Spektrum von verschiedenen Tumorentitäten sowie die große Anzahl von Modellen ermöglichen nach der Zellkultur eine erneute Prüfung der Wirksamkeit der Substanz und geben erste Hinweise darauf, ob die Substanz Wirkungsselektivität für bestimmte Tumorentitäten besitzt.
Im gleichen Kolonie-Assay und unter gleichen experimentellen Bedingungen wurden für die erfindungsgemäße Substanz (5-[5-Fluoro-2-oxo-1,2-dihydro-indol-(3Z)-ylidenemythyl]-2,4-dimethyl-1H-pyrrole-3-carboxylic acid (2-diethylamino-ethoxy)-amide (vorzugsweise das Salz der Äpfelsäure, Malate) folgende Werte gefunden: OVXF 550: IC50 = […], IC70 = 21,6 µM

[2] = test system: HT-29; test: XTT cell proliferation inhibition, HT-29; type: cell-based, humane; conditions: read-out: IC50 ohne Pyrovat
Excerpt: (§2) Die Substanzen der Beispiele 2.1 bis 2.3 wurden an verschiedenen Zelllinien in An- und Abwesenheit von Pyruvat im Nährmedium auf ihre proliferationshemmende Wirkung getestet. Die Substanzen wurden jeweils in DMSO gelöst. Anschließend wurde der Wirkstoff in acht Konzentrationsintervallen getestet. Der Berechnung der IC50-Werte lagen in jeder Konzentration acht Einzelwertbestimmungen zugrunde. Der IC50-Wert gibt die Wirkstoffkonzentration an, bei der im Vergleich zur Kontrollgruppe, die ausschließlich mit dem Lösungsmittel DMSO behandelt wurde, eine 50%ige Hemmung der Zellproliferation vorlag.

[3] = test system: BxPC-3; test: XTT cell proliferation inhibition, BxPC-3; type: cell-based, humane
Excerpt: as §2

[4] = test system: MDA-MB-453; test: XTT cell proliferation inhibition, MDA-MB-453; type: cell-based, humane; conditions: Homo sapiens
Excerpt: as §2

[5] = test system: MCF-7; test: XTT cell proliferation inhibition, MCF-7; type: cell-based, humane
Excerpt: as §2

[6] = test system: NK1; test: XTT cell proliferation inhibition, NK1; type: cell-based, Ratten; conditions: NK1, without pyruvate in the medium; read-out: IC50 ohne Pyrovat
Excerpt: as §2

[7] = test system: Wi-38; test: XTT cell proliferation inhibition, Wi-38; type: cell-based, humane; conditions: Homo sapiens; Wi-38, with pyruvate in the medium; read-out: IC50 (XTT) mit Pyrovat
Excerpt: as §2

[8] = test system: KBV-600; test: XTT cell proliferation inhibition, KBV-600; type: cell-based; conditions: KBV-600 (cultured with 600 ng/ml Vinblastin), without pyruvate in the medium; read-out: IC50 ohne Pyrovat
Excerpt: as §2

[9] = test system: 25 verschiedenen Tumormodellen; test: Colony assay in soft agar, 25 tumour models; type: cell-based, menschlichen
Excerpt: as §1
(§3) Die Ergebnisse sind in der Figur 1 dargestellt (graphische Analyse der Mittelwerte für die Substanz basierend auf den IC70-Werten). Die Balken stellen die IC70-Konzentrationen im Verhältnis zum Mittelwerte aller IC70-Werte dar. Bei Balken nach links ist der IC70-Wert für das betreffende Modell niedriger als der Mittelwert der IC70-Werte aller Modelle, d.h. diese Modelle sind sensitiver im Vergleich zum Durchschnitt aller Modelle. Balken nach rechts bedeuten höhere IC70-Werte als der Durchschnitt der Modelle und damit eine geringere Sensitivität.

[10] = test system: nicht kleinzelliges Lungentumormodell; test: Colony assay in soft agar, non-small-cell lung tumour model; type: cell-based, menschlichen; conditions: most sensitive model
Excerpt: as §1, §3

[11] = test system: Brusttumormodell; test: Colony assay in soft agar, breast tumour model; type: cell-based, menschlichen; conditions: least sensitive model
Excerpt: as §1, §3

[12] = test system: verschiedenen Zelllinien; test: Cell culture proliferation inhibition, summary over all cell lines; type: cell-based; conditions: span over the cell lines of Table 1; read-out: IC50-Werte
Excerpt: as §2

Question: What does the source list for `CCN(CC)CCNC(=O)c1c(C)[nH]c(/C=C2\C(=O)Nc3ccc(F)cc32)c1C` [SU11248, 5-[5-Fluoro-2-oxo-1,2-dihydroindol-(3Z)-ylidenemethyl]-2,4-dimethyl-1H-pyrrole-3-carboxylic Acid (2-Diethylaminoethyl)amide, reference compound]?
Answer: IC50 [1]: 18 µM; IC70 [1]: 26,7 µM

Question: `CCN(CC)CCONC(=O)c1c(C)[nH]c(/C=C2\C(=O)Nc3ccc(F)cc32)c1C` [Beispiel 2.2, N-[2-(diethylamino)ethoxy]-5-[(Z)-(5-Fluoro-1,2-dihydro-2-oxo-3H-indol-3-ylidene)methyl]-2,4-dimethyl-1H-pyrrole-3-carboxamide, (2S)-hydroxybutanedionate (1:0,5)] was tested. Which IC50 ([2]; Homo sapiens, HT-29, HT-29, without pyruvate in the medium) did it give?
Answer: Its IC50 is 3 µM.

Question: And the IC50 ([3]; BxPC-3, with pyruvate in the medium, read-out: IC50 (XTT) mit Pyrovat)?
Answer: The IC50 was 2 µM.

Question: And the IC50 ([3]; BxPC-3, without pyruvate in the medium, read-out: IC50 ohne Pyrovat)?
Answer: The IC50 was 2 µM.

Question: What about the IC50 ([4]; MDA-MB-453, MDA-MB-453, with pyruvate in the medium, read-out: IC50 (XTT) mit Pyrovat) of the same compound?
Answer: The IC50 was 8 µM.

Question: With `CCN(CC)CCONC(=O)c1c(C)[nH]c(/C=C2\C(=O)Nc3ccc(F)cc32)c1C` [Beispiel 2.1, 5-[5-Fluoro-2-oxo-1,2-dihydro-indol-(3Z)-ylidenemethyl]-2,4-dimethyl-1H-pyrrole-3-carboxylic acid (2-diethylamino-ethoxy)-amide] as the compound, how does the IC50 ([5]; Homo sapiens, MCF7, MCF-7, with pyruvate in the medium, read-out: IC50 (XTT) mit Pyrovat) read?
Answer: Its IC50 is 11 µM.

Question: What about the IC50 ([5]; Homo sapiens, MCF7, MCF-7, without pyruvate in the medium, read-out: IC50 ohne Pyrovat) of the same compound?
Answer: Its IC50 is 8 µM.

Question: What about the IC50 ([2]; Homo sapiens, HT-29, without pyruvate in the medium) of the same compound?
Answer: The IC50 was 3.5 µM.

Question: And the IC50 ([3]; Homo sapiens, BxPC-3, with pyruvate in the medium, read-out: IC50 (XTT) mit Pyrovat)?
Answer: The IC50 was 1.3 µM.

Question: What about the IC50 ([3]; Homo sapiens, BxPC-3, without pyruvate in the medium, read-out: IC50 ohne Pyrovat) of the same compound?
Answer: The IC50 was 2 µM.

Question: And the IC50 ([4]; MDA-MB-453, with pyruvate in the medium, read-out: IC50 (XTT) mit Pyrovat)?
Answer: The IC50 was 11 µM.

Question: And the IC50 ([4]; MDA-MB-453, without pyruvate in the medium, read-out: IC50 ohne Pyrovat)?
Answer: The IC50 was 7 µM.

Question: And the IC50 [6]?
Answer: The IC50 was 2 µM.

Question: What about the IC50 [7] of the same compound?
Answer: Its IC50 is 11 µM.

Question: And the IC50 [8]?
Answer: Its IC50 is 5 µM.

Question: And the “Hemmung der Koloniebildung” value ([9]; all 25 models)?
Answer: Its value is “Dosis-abhängigen Hemmung der Koloniebildung”.

Question: And the “mittlere IC70-Wert” value ([9]; mean over all 25 tumour models)?
Answer: Its value is 20 µM.

Question: What about the IC50 ([9]; mean over all 25 tumour models, read-out: mittlere IC50-Wert) of the same compound?
Answer: Its IC50 is 15 µM.

Question: What about the IC50 [10] of the same compound?
Answer: The IC50 was 4 µM.

Question: What about the IC70-Wert [10] of the same compound?
Answer: Its IC70-Wert is 6 µM.

Question: And the IC70-Wert [11]?
Answer: Its IC70-Wert is 40 µM.

Question: And the IC50 ([11]; read-out: höchste IC50-Wert)?
Answer: Its IC50 is 30 µM.

Question: What about the IC70 [1] of the same compound?
Answer: Its IC70 is 21,6 µM.

Question: What about the IC50 ([1]; substance preferably as malate salt) of the same compound?
Answer: Its IC50 is 16.7 µM.

Question: Which results are given for `CCN(CC)CCONC(=O)c1c(C)[nH]c(/C=C2\C(=O)Nc3ccc(F)cc32)c1C` [Beispiel 2.3, N-[2-(diethylamino)ethoxy]-5-[(Z)-(5-Fluoro-1,2-dihydro-2-oxo-3H-indol-3-ylidene)methyl]-2,4-dimethyl-1H-pyrrole-3-carboxamide, (2S)-hydroxybutanedionate (1:1)]?
Answer: IC50 ([5]; MCF-7, with pyruvate in the medium, read-out: IC50 (XTT) mit Pyrovat): 9 µM; IC50 ([5]; MCF-7, without pyruvate in the medium, read-out: IC50 ohne Pyrovat): 10 µM; IC50 ([2]; HT-29, without pyruvate in the medium): 3 µM; IC50 [6]: 4 µM

Question: For `CCN(CC)CCONC(=O)c1c(C)[nH]c(/C=C2\C(=O)Nc3ccc(F)cc32)c1C` [SO 272], which IC50 [12] is on record?
Answer: Its IC50 is 1 to 11 µM.
